Where two headings read alike, the source gives them in different places.
Legend:
[1] = Acute gastral ulcerogenity; set-up: species or system male Sprague-Dawley rats; conditions: rat, in vivo, po
Protocol: The investigation took place in each case on 10 male Sprague-Dawley rats in which the gastric mucous membrane had been sensitized by hunger stress. The body weight of the animals was between 200 and 300 g. While allowing free access to the drinking water, the feed was withdrawn 48 hours before administration of the test preparations until sacrifice of the animals. The rats were sacrificed 24 hours after oral administration of the substance, and the stomachs were removed, cleaned under running water and inspected for mucous membrane lesions. All macroscopically visible lesions were regarded as ulcers. The number of animals having ulcers was determined for each dose, and the UD50 values, i.e. the doses at which lesions were caused in 50% of the animals, were calculated from this number by the method of Litchfield and Wilcoxon (J. Pharmacol. Exp. Ther. 96 (1949) p. 99).

Adjuvant arthritis = Adjuvant arthritis (paw volume increase); assay type: in vivo, male rats of a Wistar-Lewis strain; conditions: for Adjuvant arthritis (% inhibition at 50 mg/kg p.o.): rat, 50 mg/kg p.o. once daily, day 1 to day 5, reduction in increase in paw volume vs control; for ED50: Rattus norvegicus, po, read-out: ED50 in adjuvant arthritis
Protocol: The investigations were carried out by the method of Pearson (Arthrit. Rheum. 2 (1959) p. 44). The experimental animals used were male rats of a Wistar-Lewis strain having a body weight between 130 and 200 g. The compounds to be tested were administered orally (p.o.) once daily from day 1 to day 5 of the experiment in doses of 50 mg per kg of body weight. The animals of a control group received only the vehicle. Each preparation and control group comprised 8 animals. The criterion used to determine an action was the percentage reduction in the increase in paw volume compared to that of the untreated control group.

in vivo = conditions: mouse, ip; for LD50 at 168 h: read-out: Acute toxicity LD50
Protocol: The LD50 values were determined by a standard method from the mortality occurring within 7 days in NMRI (Naval Medical Research Institute) mice (6 animals per dose) after a single intraperitoneal (i.p.) administration.

[2] = test system: microsomal lipid peroxidation; assay: In-vitro inhibition of lipid peroxidation, microsomes (thiobarbituric acid test); assay type: biochemical; conditions: microsomes from the rat liver
Description: (§1) Further convincing evidence of the pronounced protective action of the compounds according to the invention against aggressive oxygen radicals is provided by the thiobarbituric acid test of A. Ottolenghi (Arch. Biochem. Biophys. 79 (1959) pp. 355-363). Using this in-vitro method, the affect on microsomal and mitochondrial lipid peroxidation by antioxidatively active preparations can be determined from the malonodialdehyde produced on oxidative degredation of membrane-bound, polyunsaturated fatty acids.
(§2) Here too, the compounds of the formula I exerted a strong inhibitory action.

lymphocytes [3] = assay: Immune activity of spleen lymphocytes towards mitogens in collagen arthritis; assay type: in vivo, male Wistar rats; conditions: Example 1: 12 mg/kg p.o.
Protocol: (§3) In this experiment, arthritis was induced in male Wistar rats using type II collagen, which was obtained by standard methods of Miller and Rhodes (Meth. Enzymol. 82 (1982) p. 33) from the nasal septum of the calf and, mixed with Freund's incomplete adjuvant, was injected intradermally into the animals. This immunization process was repeated 7 days later. 20 days after the initial immunization, the affected rats were divided into groups each comprising 7 animals, which received the particular test substance or the pure vehicle (control group) orally once daily in the subsequent 20-day treatment phase. On day 41 of the experiment, i.e. one day after the final administration of substance, the increase in volume of both rear paws was determined.
The immune status of lymphocytes is also disturbed sensitively in this model of collagen arthritis.

[4] = test system: Adriamycin-induced inflammation; assay: Adriamycin-induced inflammation; assay type: in vivo, male Sprague-Dawley rats; conditions: for Increase in paw volume: 72 hours, control 430; for Protective action in %: * significance p < 0.05; for protective effect against tissue destruction induced by Adriamycin: oral
Description: According to current opinion, aggressive oxygen radicals, which are formed to excess during the chronic inflammation process and, as highly toxic inflammation mediators themselves, perpetually maintain the connective tissue destruction which proceeds via an irreversible lipid peroxidation of the cell membranes, are permanently involved in the progressive course, caused by a multitude of factors, of rheumatoid arthritis and other inflammatory disorders. As a result, antioxidatively active pharmaceuticals having the ability to deactivate these extremely cytotoxic oxygen radicals should permit specific engagement in the chronic course of the inflammation. A suitable animal model for this type of tissue destruction caused by oxygen radicals is Adriamycin (doxorubicin) induced inflammation in rats. The investigations were carried out by the method of D. M. Siegel et al. (Inflammation 4 (1980) p. 233) on male Sprague-Dawley rats having a body weight between 200 and 230 g in groups of 7 animals each, which received 0.1 mg of Adriamycin, dissolved in 0.1 ml of a 0.9% strength sodium chloride solution, by subcutaneous injection into the left rear paw. The increase in paw volume was determined by plethysmographic measurement 72 hours thereafter as a measure of the degree of inflammation. The test preparations were administered orally in 1% strength aqueous carboxymethylcellulose suspension once daily on 4 successive days, starting with the day of Adriamycin injection.

5-lipoxygenase = assay: Inhibition of 5-lipoxygenase in isolated polymorphonuclear granulocytes; assay type: cell-based, human; conditions: concentration range between 10^-5 and 10^-6 mol/l, pre-incubation 15 minutes
Protocol: The inhibitory action of the compounds according to the invention on 5-lipoxygenase-catalysed degredation of arachidonic acid was investigated,as usual, in in-vitro experiments on isolated polymorphonuclear human granulocytes. To this purpose, cells stimulated by calcium ionophor A 23 187 (Calbiochem GmbH, Frankfurt/Main, FRG, Biochemical and Immunochemical Catalog 1985, p. 284) were incubated with ^14 C-labeled arachidonic acid, and the major radioactive degredation products of arachidonic acid, 5-hydroxyeicosatetraenoic acid (5-HETE) and leukotriene […] (LTB4), which has a particularly strong proinflammatory action, formed after 15 minutes at 37° C. by biotransformation were determined quantitatively with the aid of a radio monitor after separation by high-pressure liquid chromatography (HPLC).

[5] = test system: mitochondrial lipid peroxidation; assay: In-vitro inhibition of lipid peroxidation, mitochondria (thiobarbituric acid test); assay type: biochemical; conditions: mitochondria from the rat liver
Description: as §1, §2

lymphocytes [6] = assay: Stimulation of suppressed immune response of lymphocytes towards mitogens in adjuvant arthritis; assay type: in vivo, rat; conditions: oral, Example 1 at 3.15 and 6.3 mg/kg, naproxen in doses up to 25 mg/kg
[7] = test system: Arthritis induced by type II collagen; assay: Arthritis induced by type II collagen (paw volume); assay type: in vivo, male Wistar rats; conditions: for inhibition of the increase in paw volume, collagen arthritis: oral once daily, 20-day treatment, naproxen at the same dosage
Protocol: as §3

Arthus reaction = assay: Active Arthus reaction; assay type: in vivo, female and male Sprague-Dawley rats; conditions: oral
Protocol: The experimental animals used were female and male Sprague-Dawley rats having a body weight between 80 and 100 g; they were injected subcutaneously into the tail root with 0.5 ml of an emulsion of pertussis vaccine and ovalbumin in paraffin oil. After two weeks, the rats were divided into groups of 8 animals each. The respective test substance or the pure vehicle (positive control) were administered orally 24 hours and one hour before induction of the Arthus reaction by injecting 0.1 ml of a 0.4% strength ovalbumin solution into the right rear paw. Sodium chloride solution was injected into the left paw. A group of non-sensitized animals (negative control) was likewise treated with ovalbumin in order to be able to exclude non-specific reactions to the protein. The measurement parameter used for the action of the preparation was the inhibition of the increase in paw volume compared to that of a sensitized, but untreated control group (positive control) 4 hours after ovalbumin provocation, when the swelling reaches its maximum.

[8] = NMRI mice, single i.p. administration, mortality within 7 days

Row | SMILES | TD50 at 24 h [1] | Adjuvant arthritis (% inhibition at 50 mg/kg p.o.) (Adjuvant arthritis) | LD50 at 168 h (in vivo; [8]) | ED50 (Adjuvant arthritis) | effect on immune function of lymphocytes in collagen arthritis (lymphocytes [3]) | protective effect against tissue destruction induced by Adriamycin [4] | normalization of the immune reactivity of lymphocytes towards mitogens (lymphocytes [6]) | inhibition of the increase in paw volume, collagen arthritis [7] | LD50 at 168 h (in vivo) | other results
1 | Cc1cc(-c2csc3nc(=O)cnn23)cc(C(C)(C)C)c1O [Example 2, 3-(3-Tert.butyl-5-methyl-4-hydroxyphenyl)-7H-thiazolo[3,2-b][1,2,4]triazin-7-one] | > 400 mg/kg | 41% | > 1200 mg/kg |  |  |  |  |  |  | 
2 | CC(C)(C)c1cc(-c2csc3nc(=O)cnn23)cc(C(C)(C)C)c1O [Example 1, 3-(3,5-Di-tert.butyl-4-hydroxyphenyl)-7H-thiazolo[3,2-b][1,2,4]triazin-7-one] | > 400 mg/kg | 67% | > 1200 mg/kg | 10.9 mg/kg | completely normalized the immune function of both T and B lymphocytes | strong, dose-dependent protective effect | substantial normalization of the immune reactivity | dose-dependent inhibition of the increase in paw volume |  | IC50 [2]: 0.6 µM; selectivity ratio [1]: > 36.7; Increase in paw volume ([4]; 20 mg/kg p.o.): 220 µL; Protective action in % ([4]; 20 mg/kg p.o.): 49%; Increase in paw volume ([4]; 40 mg/kg p.o.): 200 µL; Protective action in % ([4]; 40 mg/kg p.o.): 54%; Increase in paw volume ([4]; 80 mg/kg p.o.): 10 µL; Protective action in % ([4]; 80 mg/kg p.o.): 98%; inhibition of formation of 5-HETE (5-lipoxygenase): significantly inhibited; inhibition of formation of LTB4 (5-lipoxygenase): significantly inhibited; IC50 [5]: 3 µM; minimal effective dose ([7]; Rattus norvegicus, po, collagen arthritis, p.o., read-out: dose from which inhibition of the increase in paw volume was statistically significant): ≥ 25 mg/kg; selectivity ratio (in vivo; LD50 (mice i.p.) / ED50 (adjuvant arthritis), read-out: therapeutic range, quotient LD50/ED50): > 110
3 | Cc1nn2c(-c3cc(C(C)(C)C)c(O)c(C(C)(C)C)c3)csc2nc1=O [Example 6] | > 200 mg/kg | 50% |  |  |  |  |  |  | > 1200 mg/kg | 
4 | COc1ccc2cc(C(C)C(=O)O)ccc2c1 (stereo not shown) [Naproxen, 2-(6-methoxy-2-naphthyl)-propionic acid, reference compound] |  | 55% |  | 17.5 mg/kg | no effect | ineffective | ineffective | only non-significant inhibition values |  | effect on Arthus reaction (Arthus reaction): ineffective
5 | CC(C)(C)c1cc(-c2csc3nc(=O)c(CO)nn23)cc(C(C)(C)C)c1O [Example 3, 3-(3,5-Di-tert.butyl-4-hydroxyphenyl)-6-hydroxymethyl-7H-thiazolo[3,2-b][1,2,4]triazin-7-one] | > 200 mg/kg | 41% | > 1200 mg/kg |  |  |  |  |  |  | 
6 | CCCc1nn2c(-c3cc(C(C)(C)C)c(O)c(C(C)(C)C)c3)csc2nc1=O [Example 9] | > 200 mg/kg | 45% |  |  |  |  |  |  | > 1200 mg/kg | 

From US4908364A, “Substituted 3-phenyl-7H-thiazol[3,2-b][1,2,4]-triazin-7-ones” (Hoechst Aktiengesellschaft, priority 1987, dated 1990)
